Each structure is given as a SMILES string.

Results on 1 molecule are retold here after patent publication US12528774B2, “Thiosemicarbazone compounds and uses thereof” (The Regents of the University of California, priority 2019, dated 2026).

In assay [1] the test system is electron transport chain complexes of isolated mitochondria. The assay is described as follows: Electron flow assay in isolated mitochondria. Type of assay: biochemical, mouse. To be noted: HCT-13 + Cu(II) 20 μM. As to the method: FIG. 3A: Mito Stress Test of MIAPACA2 PDAC cells treated with HCT13 (25 nM)+Cu(II) (20 μM) for 24h. FIG. 3B: electron flow assay in isolated mitochondria treated with HCT-13 (100 nM)+Cu(II) (20 μM) for 1h. FIG. 3C: viability of 143 BTK parental (wild type, WT) and ρ0 cells after 48h of the indicated HCT13 concentration+Cu(II) (20 μM) treatment, assessed with Trypan Blue Staining. FIG. 3D: 48h cell cycle histogram and plots of S-phase arrest plots in 143 BTK WT and 143 BTK ρ0 cells at 24, 48 and 72h following treatment with indicated concentrations of HCT13+Cu(II)(20 μM). (mean±SD, n=2, one-way ANOVA corrected for multiple comparisons by Bonferroni adjustment, * P<0.05; ** P<0.01; *** P<0.001). […]
Mito Stress Test and Electron Flow Assay: All oxygen consumption rate (OCR) was measured using a XF24 Analyzer (Agilent) and normalized per μg protein. […] OCR was measured before (total respiration) and after the sequential injection of 1 μM oligomycin (complex V inhibitor), 0.75 μM FCCP (uncoupler), and 1 μM of rotenone and myxothiazol (complex I and III inhibitors, respectively), as described previously (1). Mitochondrial respiration was calculated by subtracting the non-mitochondrial respiration left after rotenone and myxothiazol injection. […] OCR was measured before and after the sequential injections described in the previous paragraph. […]

A further assay deals with MIAPACA-2 cells. Description: Nucleotide pool measurement by LC-MS/MS-MRM. Type of assay: cell-based, human. The note with it: 25 nM HCT-13 + Cu(II), 48 hours. As to the method: FIGS. 4A-4G show the chemical genomics screen identifying the replication stress response pathway as an actionable co-dependency of HCT13-treated cells. FIG. 4A: experimental design of a synthetic lethality screen using a library of protein kinase inhibitors against HCT13-treated cells in the presence of Cu(II) (20 μM). FIG. 4B: radar plot of screen results. FIG. 4C: z-score values for kinase inhibitors within the DNA damage response/replication stress response (DDR/RSR) pathway module. FIG. 4D: representative immunoblot of replication stress and cell death biomarkers in MIAPACA2 PDAC cells treated with HCT13 (10 nM)+Cu(II) (20 μM). […]
These observations are indicative of DDR/RSR pathway activation, which was hypothesized to arise from nucleotide insufficiency and/or, given the ability of copper to generate ROS, from ROS-mediated DNA damage. […] To test the former hypothesis, nucleotide levels were measured in treated and non-treated cells using liquid chromatography-tandem mass spectrometry with multiple reaction monitoring (LC-MS/MS-MRM) as previously described by Le et al, Nature Communications 2017, 8(1):1-14. […] These findings indicate that HCT-13 preferentially decreases the dGTP and rGTP pools, potentially via oxidative processes as guanine is the most readily oxidized nucleobase. […]

For the molecule `CN(C)C(=S)N/N=C/c1nccc2cc(F)ccc12` (mixture of isomers) [HCT13, (E)-2-((6-Fluoroisoquinolin-1-yl)methylene)-N,N-dimethylhydrazine-1-carbothioamide and (Z)-2-((6-Fluoroisoquinolin-1-yl)methylene)-N,N-dimethylhydrazine-1-carbothioamide], the “mitochondrial ETC complex activity” value in assay [1] is “decreased activity of complexes I and II”; in assay [1] (listed as HCT-13), “ETC Complex 1 was most dramatically affected”. Also, the “dGTP and rGTP pools” value with MIAPACA-2 cells is listed as “decreased”.
